Test results taken from the NIST ThermoML archive (doi:10.1016/j.fluid.2015.08.029).

Assay: xn = mol fraction of the nth substance listed
Conditions: Buoyancy - hydrostatic balance with magnetic suspension - one sinker, x2 = 0.95

C [methane] + O=C=O
Conditions | mass density [kg/m3]
300.07 K, 7972.2 kPa, Fluid (supercritical or subcritical phases) | 556.595
300.14 K, 8371 kPa, Fluid (supercritical or subcritical phases) | 616.06
300.14 K, 8570.3 kPa, Fluid (supercritical or subcritical phases) | 633.917
300.15 K, 8770.2 kPa, Fluid (supercritical or subcritical phases) | 648.153
300.15 K, 8969.4 kPa, Fluid (supercritical or subcritical phases) | 660.072
300.15 K, 9169.7 kPa, Fluid (supercritical or subcritical phases) | 670.371
300.15 K, 9370.4 kPa, Fluid (supercritical or subcritical phases) | 679.432
300.15 K, 9569.6 kPa, Fluid (supercritical or subcritical phases) | 687.435
300.15 K, 9968.4 kPa, Fluid (supercritical or subcritical phases) | 701.498
300.16 K, 9768.4 kPa, Fluid (supercritical or subcritical phases) | 694.681
300.17 K, 8169.8 kPa, Fluid (supercritical or subcritical phases) | 590.047
301.07 K, 7972.4 kPa, Fluid (supercritical or subcritical phases) | 491.013
301.08 K, 7573.6 kPa, Liquid | 317.651
301.11 K, 7972.7 kPa, Liquid | 489.743
301.11 K, 8970.7 kPa, Liquid | 641.991
301.13 K, 6976 kPa, Gas | 227.803
301.13 K, 7872.3 kPa, Liquid | 446.609
301.14 K, 4003.5 kPa, Gas | 86.6567
301.14 K, 5978.2 kPa, Gas | 160.13
301.14 K, 7972.1 kPa, Liquid | 486.831
301.14 K, 8170.1 kPa, Liquid | 548.746
301.14 K, 8371.5 kPa, Fluid (supercritical or subcritical phases) | 585.039
301.14 K, 8570.7 kPa, Fluid (supercritical or subcritical phases) | 609.188
301.14 K, 9969.4 kPa, Liquid | 689.045
301.14 K, 10967 kPa, Liquid | 718.917
301.14 K, 11966 kPa, Liquid | 741.154
301.15 K, 1990.5 kPa, Gas | 37.5288
301.15 K, 2980.5 kPa, Gas | 59.7905
301.15 K, 4979.8 kPa, Gas | 117.931
301.15 K, 7772.9 kPa, Liquid | 394.053
301.15 K, 8071.6 kPa, Liquid | 522.073
301.15 K, 8271.7 kPa, Liquid | 569.213
301.15 K, 8770.5 kPa, Fluid (supercritical or subcritical phases) | 627.154
301.15 K, 8970.7 kPa, Fluid (supercritical or subcritical phases) | 641.721
301.15 K, 9370.6 kPa, Fluid (supercritical or subcritical phases) | 664.364
301.15 K, 9568.5 kPa, Fluid (supercritical or subcritical phases) | 673.475
301.15 K, 9768.6 kPa, Fluid (supercritical or subcritical phases) | 681.815
301.15 K, 9968.2 kPa, Fluid (supercritical or subcritical phases) | 689.247
301.16 K, 7673.5 kPa, Liquid | 347.909
301.16 K, 9169.7 kPa, Fluid (supercritical or subcritical phases) | 653.715
301.17 K, 8170.5 kPa, Fluid (supercritical or subcritical phases) | 547.088
302.07 K, 7971.5 kPa, Fluid (supercritical or subcritical phases) | 416.856
302.09 K, 7574.3 kPa, Liquid | 293.998
302.14 K, 7873.7 kPa, Liquid | 376.389
302.14 K, 8073.1 kPa, Liquid | 455.2
302.14 K, 8171.5 kPa, Liquid | 491.43
302.14 K, 8273.3 kPa, Liquid | 521.984
302.15 K, 7774.4 kPa, Liquid | 340.924
302.15 K, 7973.5 kPa, Liquid | 414.824
302.15 K, 8570 kPa, Fluid (supercritical or subcritical phases) | 578.598
302.15 K, 8769.9 kPa, Fluid (supercritical or subcritical phases) | 602.454
302.15 K, 8969.1 kPa, Fluid (supercritical or subcritical phases) | 620.555
302.15 K, 9168.8 kPa, Fluid (supercritical or subcritical phases) | 635.22
302.15 K, 9369 kPa, Fluid (supercritical or subcritical phases) | 647.538
302.16 K, 7674.4 kPa, Liquid | 312.96
302.16 K, 8169.9 kPa, Fluid (supercritical or subcritical phases) | 489.715
302.16 K, 8371.1 kPa, Fluid (supercritical or subcritical phases) | 543.85
302.16 K, 9568.3 kPa, Fluid (supercritical or subcritical phases) | 658.091
302.16 K, 9768.3 kPa, Fluid (supercritical or subcritical phases) | 667.497
302.16 K, 9970.6 kPa, Fluid (supercritical or subcritical phases) | 676.016
303.08 K, 7971 kPa, Fluid (supercritical or subcritical phases) | 368.276
303.15 K, 8169 kPa, Fluid (supercritical or subcritical phases) | 434.951
303.15 K, 8369.8 kPa, Fluid (supercritical or subcritical phases) | 500.535
303.15 K, 8569.4 kPa, Fluid (supercritical or subcritical phases) | 546.267
303.15 K, 8770.2 kPa, Fluid (supercritical or subcritical phases) | 577.054
303.16 K, 9168.7 kPa, Fluid (supercritical or subcritical phases) | 616.875
303.16 K, 9368.4 kPa, Fluid (supercritical or subcritical phases) | 631.164
303.16 K, 9567.7 kPa, Fluid (supercritical or subcritical phases) | 643.384
303.16 K, 9967.1 kPa, Fluid (supercritical or subcritical phases) | 663.476
303.17 K, 8969.3 kPa, Fluid (supercritical or subcritical phases) | 598.947
303.17 K, 9768 kPa, Fluid (supercritical or subcritical phases) | 653.938
304.1 K, 7971.1 kPa, Fluid (supercritical or subcritical phases) | 329.354
304.14 K, 8569.2 kPa, Fluid (supercritical or subcritical phases) | 496.33
304.14 K, 8968.4 kPa, Fluid (supercritical or subcritical phases) | 567.739
304.15 K, 8769.3 kPa, Fluid (supercritical or subcritical phases) | 537.629
304.15 K, 9169.5 kPa, Fluid (supercritical or subcritical phases) | 590.204
304.15 K, 9567.9 kPa, Fluid (supercritical or subcritical phases) | 622.735
304.16 K, 8171.5 kPa, Fluid (supercritical or subcritical phases) | 378.227
304.16 K, 9973.8 kPa, Fluid (supercritical or subcritical phases) | 646.365
304.17 K, 8370 kPa, Fluid (supercritical or subcritical phases) | 438.794
304.17 K, 9370.7 kPa, Fluid (supercritical or subcritical phases) | 607.811
304.17 K, 9767.3 kPa, Fluid (supercritical or subcritical phases) | 634.947
305.11 K, 7971.7 kPa, Fluid (supercritical or subcritical phases) | 307.661
305.15 K, 8371 kPa, Fluid (supercritical or subcritical phases) | 394.247
305.15 K, 8569.8 kPa, Fluid (supercritical or subcritical phases) | 449.045
305.15 K, 8769.4 kPa, Fluid (supercritical or subcritical phases) | 497.809
305.15 K, 8968.6 kPa, Fluid (supercritical or subcritical phases) | 535.323
305.15 K, 9168.3 kPa, Fluid (supercritical or subcritical phases) | 563.28
305.15 K, 9568.1 kPa, Fluid (supercritical or subcritical phases) | 602.629
305.16 K, 8169.9 kPa, Fluid (supercritical or subcritical phases) | 344.406
